Measured values from patent publication EP0117578A2, “Azole-substituted alcohol derivatives” (SHIONOGI & CO., LTD., priority 1983, dated 1984).
Converted amounts (≈) assume the structure as drawn.

What was measured:
[1] = system: Candida albicans KE-2; assay: Inhibition test against the formation of the pseudohyphae of Candida albicans; assay type: cell-based; details: KE2; Candida albicans KE-2, 1 x 10^6 cells/ml; Eagle's MEM with 20 % bovine serum; 37°C, 18 hours; two-fold dilution; read-out: Inhibitory Concentration against Pseudohyphae Formation
Experimental: [Inhibition test against the formation of the pseudohyphae of Candida albicans] To an Eagle's MEM medium (Nissan 2; Nissui Pharmaceutical Co., Ltd.) was added 20 % bovine serum, onto which yeast cells of Candida albicans KE-2 were inoculated so that the terminal inoculum size would amount to 1 x 10^6 cells/ml. Then, a test compound was added to the medium by a two-fold dilution method, and cultivation was performed at 37°C for 18 hours. After termination of the cultivation, the cells of serial dilution on each medium were smeared and fixed on an object glass, then stained by the Giemsa's staining method, and the occurrence of the pseudohyphae was observed by microscopy. Minimum concentration for inhibiting the formation of the pseudohyphae was regarded as Inhibitory Concentration against Pseudohyphae Formation.

[2] = system: Trichophyton asteroides; assay: in vitro antifungal test, minimum inhibitory concentration (MIC); assay type: cell-based; details: Sabouraud's dextrose broth
Excerpt: Sabouraud's dextrose broth was used as a culture medium.

[3] = system: Candida albicans KE-2; assay: Therapeutic effect against experimental candidiasis in mice; assay type: in vivo; details: female Jcl-ICR mice infected intravenously; 50 mg/kg orally twice a day for 5 days; survival at the 15th day
Experimental: [Therapeutic effect against experimental candidiasis in mice] Candida albicans KE-2 was cultivated in a Sabouraud's dextrose agar at 28°C for 48 hours, and the resulting culture was suspended in the Sabouraud's dextrose broth. The cells (5 x 105) were administered intravenously at the tail of female Jcl-ICR mice (4 weeks age, body weight 18 - 20 g). The test compound suspended in 2 % gum-arabic was orally administered at a dose of 50 mg/kg twice a day for 5 days: on the first day, the test compound was administered twice i.e. immediately after the infection and 2 hours later; on the second day or later, 24 hours after the administration of the previous day respectively. An infected group to which no test compound was administered was regarded as a control group. Eight mice were employed per group in the control group and the test groups to which the test compound was administered. Therapeutic effect was evaluated on the survival rate at the 15th day since the day of infection; the result is shown below.

[4] = system: cucurbit powdery mildew (Sphaerotheca fuliginea); assay: Control of powdery mildew in cucumber; assay type: in vivo; set-up: key: O: Disease sign was detected for nearly 100 % area in the inoculated leaf surface; 3: Disease sign was detected for about 50 % area; 5: Disease sign was detected for about 30 % area; 7: Disease sign was detected for about 20 % area; 9: Disease sign was slightly detected; 10: No disease sign was detected; details: degree of mildew infection 10 days after inoculation; for Soil application (10 ppm) Prevention: 10 ml at 10 ppm applied to the soil before inoculation; for Foliar spray (125 ppm) Supprension: sprayed at 125 ppm 2 days after inoculation; for Foliar spray (125 ppm) Prevention: sprayed at 125 ppm before inoculation
Experimental: Three ml of preparation containing a test compound at a concentration of 125 ppm was sprayed foliarly to the first leaf of young cucumber plant (cultivar: Matsukaze) which was grown in 9 cm pot in a glasshouse. Similar preparation in 10 ml with the test compound at a concentration of 10 ppm was applied directly to the soil in another pot with cucumber. These plants were inoculated subsequently with conidia suspension of cucurbit powdery mildew (Sphaerotheca fuliginea) and kept in a glasshouse at the temperature of 25 ± 2 °C. Yet in another experiment cucumber in pot was inoculated first with conidia of Sphaerotheca fuliginea and after 2 days the test compound was sprayed foliarly as above to examine its suppressive ability against development of the disease. For all these cucumber plants were observed 10 days after each inoculation and degrees of mildew infection were given as follows: • O : Disease sign was detected for nearly 100 % area in the inoculated leaf surface • 3 : Disease sign was detected for about 50 % area • 5 : Disease sign was detected for about 30 % area • 7 : Disease sign was detected for about 20 % area • 9 : Disease sign was slightly detected • 10: No disease sign was detected

[5] = system: dumping-off pathogen, Rhizoctonia solani; assay: Control of dumping-off in cucumber seedlings; assay type: in vivo; details: cucumber seeds, 14 days after sowing; for Disease degree (%): 30 ml at 500 ppm applied to the soil, 30 ± 2 °C; for Control (%): 500 ppm applied to the soil, calculated from disease degree
Experimental: Twenty seeds of cucumber (cultivar: Matsukaze) were sown in 150 g of sterilized soil in 9 cm pot. The soil surface was covered with 15 g of inoculum which contained a dumping-off pathogen, Rhizoctonia solani precultured in a mixture of wheat bran and sterilized soil. Then 30 ml of preparation with a test compound at a concentration of 500 ppm was applied to the soil and the pot was kept at 30 ± 2 °C in a humid chamber.

[6] = system: sheath blight fungus (Rhizoctonia solani); assay: Control of sheath blight in rice; assay type: in vivo; details: rice sprayed foliarly at 500 ppm, 5 days
Experimental: Rice (cultivar: Aichi-asahi) was grown in pots in a glasshouse for about 3 months and the plant in each pot was sprayed foliarly with 5 ml of preparation containing a test compound at a concentration of 500 ppm. Then the rice was inoculated at the stem near the soil with sheath blight fungus (Rhizoctonia solani) which was previously cultured in rice husks. The inoculated plant was placed in a humid (r.h. 97 %) chamber at 28°C for 5 days.

[7] = system: cucumber downy mildew (Pseudoperonospora cubensis); assay: Control of cucumber downy mildew; assay type: in vivo; details: cucumber leaf sprayed at 125 ppm, 10 days
Experimental: The first leaf of young cucumber plant (cultivar : Matsukaze) grown in pot was sprayed with 3 ml of preparation containing a test compound at a concentration of 125 ppm. Five small droplets of suspension of sporangia of cucumber downy mildew (Pseudoperonospora cubensis) were applied to the leaf surface and the pot was kept at 22 ± 2°C under humid condition for 10 days. Then disease degree of downy mildew symptom developed was determined by the following method : [formula] • where, a : Number of inoculations showing typical disease symptom • b : Number of inoculations at which chlorosis was developed • c : Number of inoculations at which chlorosis was slightly developed • d : Number of inoculations at which no disease symptoms were developed Disease degree in Disease degree in [formula]

## OC(c1ccc(Cl)cc1Cl)C(O)(Cn1cncn1)c1ccc(Cl)cc1Cl (centres unmarked) [compound 63, 1,2-bis(2,4-dichlorophenyl)-3-(1H-1,2,4-triazol-1-yl)-propylene glyco]
[1]
  minimal effective concentration: 0.08 µg/mL
[2]
  MIC: 0.1 µg/mL (≈ 0.231 µM)
[3]
  Survival Rate: 75%

## Cc1ccc(C(=O)C(O)(Cn2cncn2)c2ccc(C)cc2)cc1 (centres unmarked) [compound 9]
[2]
  MIC: 1.56 µg/mL (≈ 4.85 µM)

## CCC(C)C(=O)C(O)(Cn1cncn1)c1ccc(Cl)cc1 (centres unmarked) [compound 34]
[2]
  MIC: 0.1 µg/mL (≈ 0.325 µM)

## O=C(c1ccc(Cl)cc1Cl)C(O)(Cn1cncn1)c1ccc(Cl)cc1Cl (centres unmarked) [compound 6]
[1]
  minimal effective concentration: 0.16 µg/mL
[2]
  MIC: 0.1 µg/mL (≈ 0.232 µM)

## CCCC(=O)C(O)(Cn1cncn1)c1ccccc1Cl (centres unmarked) [compound 32]
[1]
  minimal effective concentration: 0.04 µg/mL
[2]
  MIC: 0.8 µg/mL (≈ 2.72 µM)
[4]
  Soil application (10 ppm) Prevention: 10
  Foliar spray (125 ppm) Supprension: 10
  Foliar spray (125 ppm) Prevention: 10

## OC(c1ccc(Cl)cc1Cl)C(O)(Cn1cncn1)c1ccc(F)cc1 (centres unmarked) [compound 78]
[1]
  minimal effective concentration: 0.31 µg/mL

## O=C(c1ccc(F)cc1)C(O)(Cn1cncn1)c1ccc(Cl)cc1Cl (centres unmarked) [compound 8]
[1]
  minimal effective concentration: 1.25 µg/mL
[5]
  Disease degree (%): 5%
  Control (%): 95%

## CCCC(=O)C(O)(Cn1cncn1)c1ccc(Cl)cc1Cl (centres unmarked) [compound 25]
[1]
  minimal effective concentration: 0.04 µg/mL
[6]; 28°C, r.h. 97 %
  Growth of mycelia (mm): 20 mm
[6]; calculated from growth of mycelia
  Suppression (%): 90%
[2]
  MIC: 0.1 µg/mL (≈ 0.305 µM)
[4]
  Soil application (10 ppm) Prevention: 10
  Foliar spray (125 ppm) Supprension: 10
  Foliar spray (125 ppm) Prevention: 10

## O=C(c1ccccc1F)C(O)(Cn1cncn1)c1ccc(Cl)cc1Cl (centres unmarked) [compound 46]
[7]; 22 ± 2°C, humid
  Disease degree (%): 20%
[7]; calculated from disease degree
  Control (%): 80%
[3]
  Survival Rate: 87.5%
[5]
  Disease degree (%): 0%
  Control (%): 100%
[4]
  Soil application (10 ppm) Prevention: 5 (Disease sign was detected for about 30 % area)
  Foliar spray (125 ppm) Supprension: 10
  Foliar spray (125 ppm) Prevention: 10

## CCC(C)C(=O)C(O)(Cn1cncn1)c1ccc(Cl)cc1Cl (centres unmarked) [compound 28]
[1]
  minimal effective concentration: 0.02 µg/mL

## O=C(c1ccc(F)cc1)C(O)(Cn1cncn1)c1ccccc1Cl (centres unmarked) [compound 19]
[3]
  Survival Rate: 100%

## O=C(c1ccccc1Cl)C(O)(Cn1cncn1)c1ccccc1Cl (centres unmarked) [compound 10]
[1]
  minimal effective concentration: 0.08 µg/mL
[2]
  MIC: 0.1 µg/mL (≈ 0.276 µM)
[5]
  Disease degree (%): 8%
  Control (%): 92%

## COc1ccc(C(=O)C(O)(Cn2cncn2)c2ccc(OC)cc2)cc1 (centres unmarked) [compound 7]
[2]
  MIC: 12.5 µg/mL (≈ 35.4 µM)

## O=C(c1ccc(Cl)cc1Cl)C(O)(Cn1ccnc1)c1ccc(Cl)cc1Cl (centres unmarked) [Compound No. 1, 2',4'-dichloro-2-(2,4-dichlorophenyl)-2-hydroxy-3-(1H-imidazol-1-yl)propiophenone]
[2]
  MIC: 0.1 µg/mL (≈ 0.232 µM)
[4]
  Foliar spray (125 ppm) Supprension: 10
  Foliar spray (125 ppm) Prevention: 10

## CCCCC(=O)C(O)(Cn1cncn1)c1ccc(Cl)cc1Cl (centres unmarked) [compound 23]
[2]
  MIC: 0.1 µg/mL (≈ 0.292 µM)

## CCCC(O)C(O)(Cn1cncn1)c1ccc(Cl)cc1 (centres unmarked) [compound 80]
[2]
  MIC: 1.6 µg/mL (≈ 5.41 µM)

## OC(c1ccccc1Cl)C(O)(Cn1cncn1)c1ccccc1Cl (centres unmarked) [compound 69]
[1]
  minimal effective concentration: 0.08 µg/mL
[2]
  MIC: 0.1 µg/mL (≈ 0.275 µM)

## O=C(c1cccc(Cl)c1)C(O)(Cn1cncn1)c1cccc(Cl)c1 (centres unmarked) [compound 11]
[2]
  MIC: 3.13 µg/mL (≈ 8.64 µM)

## OC(c1ccc(F)cc1)C(O)(Cn1cncn1)c1ccc(F)cc1 (centres unmarked) [compound 71]
[2]
  MIC: 1.56 µg/mL (≈ 4.71 µM)
[4]
  Soil application (10 ppm) Prevention: 10
  Foliar spray (125 ppm) Supprension: 10
  Foliar spray (125 ppm) Prevention: 10

## OC(c1ccc(F)cc1)C(O)(Cn1cncn1)c1ccc(Cl)cc1Cl (centres unmarked) [compound 67]
[1]
  minimal effective concentration: 0.08 µg/mL
[2]
  MIC: 0.1 µg/mL (≈ 0.262 µM)
[3]
  Survival Rate: 100%
